# Test results published in patent US8399689B2, “Chrysophaentin antimicrobial compounds that inhibit FtsZ protein” (The United States of America, as represented by the …, priority 2010, dated 2013).
# Entries after “also recorded” stand apart in the source; their conditions may differ.
# Legend:
# [1] = test system: Staphylococcus aureus (SA, ATCC 25923); test: Agar disk diffusion assay, S. aureus; format: cell-based
# Experimental: (§1) Compounds 1-8 were tested for antimicrobial activity against Staphylococcus aureus (SA, ATCC 25923), methicillin-resistant S. aureus (MRSA, ATCC BAA-41), multidrug-resistant S. aureus (MDRSA, ATCC BAA-44), Enterococcus faecium (EF, ATCC 49032), vancomycin-resistant E. Faecium (VRE, ATCC 700221), and Bacillus subtilis (ATCC 49343) using a modified disk diffusion assay and microbroth liquid dilution assays. For disk diffusion assays, agar plates seeded with suspensions of bacteria were prepared by adding 500 μL of a 24 h culture of bacteria to 100 mL of autoclaved Mueller Hinton II agar and cooled to 55° C. Seeded liquid agar (10 mL) was transferred immediately to square Petri dishes and allowed to cool for 1 h. Control drugs used for each microorganism included kanamycin (50 μg) for S. aureus, and nitrofurantoin (25 μg) for MRSA. Following incubation at 37° C. for 18 h, zones of inhibition were measured. MICso values for compounds 1 and 4-8 were determined using a microbroth dilution assay outlined in the Clinical and Laboratory Standards Institute methods for susceptibility tests for bacteria that grow aerobically. Briefly, single bacterial colonies were used to inoculate 4 mL of Trypticase Soy broth (BD) for overnight growth and inoculum for each were diluted to 5×10^5 CFU/mL using the 0.5 McFarland standard. In a 96 well plate (Costar, round bottom), control antibiotics (oxacillin for SA and MRSA, vancomycin for EF and VRE, chloramphenicol for B. subtilis) or natural product inhibitors were added to Muller Hinton II broth (for S. aureus, MRSA, and B. subtilis) or 10% brain heart infusion broth (for E. faecium and VRE) in the first column of the well plates, and serially diluted across the plate, reserving wells for a positive growth control (no treatment). 10 μL of diluted bacteria were added to all wells with the exception of those kept for broth blanks (MHII or brain heart infusion broth only). Plates were incubated at 37° C. overnight and read at absorbance 600 nm on a Molecular Devices plate reader. Growth curves were plotted and ICso values obtained using Kalidagraph software.
# [2] = test system: vancomycin-resistant E. Faecium (VRE, ATCC 700221); test: Agar disk diffusion assay, VREF; format: cell-based, Enterococcus faecium
# Experimental: as §1
# tubulin = test: Tubulin polymerization assay; format: biochemical; conditions: for effect on tubulin polymerization: at 150 μM, 15 times its IC50 for FtsZ
# [3] = test system: control mammalian cell line BSC-1; test: Cytotoxicity, BSC-1 control cells; format: cell-based; conditions: no cytotoxicity at concentrations as high as
# [4] = test system: Enterococcus faecium (EF, ATCC 49032); test: Microbroth dilution assay, E. faecium; format: cell-based; conditions: concentration at which growth is reduced by 50%
# Experimental: as §1
# [5] = test system: Staphylococcus aureus (SA, ATCC 25923); test: Microbroth dilution assay, S. aureus; format: cell-based; conditions: concentration at which growth is reduced by 50%; for MIC50 (μg/mL) S. aureus: microbroth dilution
# Experimental: as §1
# [6] = test system: Gram-positive pathogens (S. aureus, B. subtilis, E. faecium, MRSA, MDRSA, VREF); test: Disk diffusion and microbroth dilution assays, strains taken together; format: cell-based
# Text: Solid agar disk diffusion and microbroth dilution assays were used to evaluate the antimicrobial activities of compounds 1, hexaacetate 1a, and 4-8 toward clinically relevant, Gram-positive pathogens, including the drug-susceptible bacteria Staphylococcus aureus, Bacillus subtilis and Enterococcus faecium, and drug-resistant strains methicillin-resistant S. aureus (MRSA), multidrug-resistant S. aureus (MDRSA), and vancomycin-resistant E. faecium (VREF) (see Table 7, Example 2).
# as §1, with “In a 96 well plate (Costar, round bottom), control antibiotics (oxacillin for SA and MRSA, vancomycin for EF and VRE, chloramphenicol for B. subtilis) or natural product inhibitors were added to Muller Hinton II broth (for S. aureus, MRSA, and B. subtilis) or 10% brain heart infusion broth (for E. faecium and VRE) in the first column of the well plates, and serially diluted across the plate, reserving wells for a positive growth control (no treatment). 10 μL of diluted bacteria were added to all wells with the exception of those kept for broth blanks (MHII or brain heart infusion broth only).” left out, “Growth curves were plotted and ICso values obtained using Kalidagraph software.” left out
# recombinant E. coli FtsZ [7] = target: T1, recombinant E. coli FtsZ (Escherichia coli, UniProt P0A9A6); test: FtsZ polymerization assay by transmission electron microscopy; conditions: 50 μM compound, 6 μM FtsZ, GTP 1 mM
# Experimental: Protofilament formation of E. coli FtsZ was assessed by polymerization assays. […] Following an additional 5 minutes incubation period at room temperature, aliquots (5 μL) were adsorbed onto carbon films on lacey carbon supports on 400-mesh copper grids, rinsed with H2O, and exposed to 3% uranyl acetate for 5 minutes for negative staining. Images were acquired with an FEI Morgani transmission electron microscope, operating at 80 kV, and equipped with an AMT Advantage camera at 44,000× magnification.
# [8] = test system: Enterococcus faecium (EF, ATCC 49032); test: Agar disk diffusion assay, E. faecium; format: cell-based
# Experimental: as §1
# [9] = test system: methicillin-resistant S. aureus (MRSA, ATCC BAA-41); test: Microbroth dilution assay, MRSA; format: cell-based, Staphylococcus aureus; conditions: microbroth dilution, concentration at which growth is reduced by 50%
# Experimental: as §1
# [10] = test system: Bacillus subtilis (ATCC 49343); test: Microbroth dilution assay, B. subtilis; format: cell-based; conditions: ATCC49343
# Experimental: Compounds 1-8 were tested for antimicrobial activity against Staphylococcus aureus (SA, ATCC 25923), methicillin-resistant S. aureus (MRSA, ATCC BAA-41), multidrug-resistant S. aureus (MDRSA, ATCC BAA-44), Enterococcus faecium (EF, ATCC 49032), vancomycin-resistant E. Faecium (VRE, ATCC 700221), and Bacillus subtilis (ATCC 49343) using a modified disk diffusion assay and microbroth liquid dilution assays. For disk diffusion assays, agar plates seeded with suspensions of bacteria were prepared by adding 500 μL of a 24 h culture of bacteria to 100 mL of autoclaved Mueller Hinton II agar and cooled to 55° C. Seeded liquid agar (10 mL) was transferred immediately to square Petri dishes and allowed to cool for 1 h. Control drugs used for each microorganism included kanamycin (50 μg) for S. aureus, and nitrofurantoin (25 μg) for MRSA. Following incubation at 37° C. for 18 h, zones of inhibition were measured. MICso values for compounds 1 and 4-8 were determined using a microbroth dilution assay outlined in the Clinical and Laboratory Standards Institute methods for susceptibility tests for bacteria that grow aerobically. […] Plates were incubated at 37° C. overnight and read at absorbance 600 nm on a Molecular Devices plate reader. […]
# [11] = test system: human colon tumor cell line HCT-116; test: Cytotoxicity, HCT-116; format: cell-based; conditions: did not inhibit growth at concentrations as high as
# GTP binding site of FtsZ = GTP binding site of FtsZ (Escherichia coli, UniProt P0A9A6); test: Competition STD NMR with GTPγS; parameters: species or system E. coli; conditions: for mode of binding relative to GTP/GTPγS: GTPγS titration 0.5-3.0 equivalents
# [12] = test system: murine leukemia cell line P388; test: Cytotoxicity, P388; format: cell-based; conditions: did not inhibit growth at concentrations as high as
# [13] = test system: vancomycin-resistant E. Faecium (VRE, ATCC 700221); test: Microbroth dilution assay, VREF; format: cell-based, Enterococcus faecium; conditions: microbroth dilution, concentration at which growth is reduced by 50%
# Experimental: as §1
# recombinant E. coli FtsZ [14] = target: T1, recombinant E. coli FtsZ; test: FtsZ GTPase colorimetric (malachite green) assay; format: biochemical; conditions: 2 μM FtsZ, 0.25 mM GTP, pH 6.5
# Experimental: Solutions were incubated at room temperature for 5 min, followed by addition of 0.25 mM GTP. At the end of a 20-min incubation period, enzyme activity was quenched by addition of 50 μL Malachite Green solution and the wells read at A^625 on an absorbance plate reader.
# [15] = test system: methicillin-resistant S. aureus (MRSA, ATCC BAA-41); test: Agar disk diffusion assay, MRSA; format: cell-based, Staphylococcus aureus
# Experimental: as §1
# [16] = Lowest concentrations leading to 8-10 mm zones of inhibition
# T1 sequence (P0A9A6 whole entry, the tested form may be a part): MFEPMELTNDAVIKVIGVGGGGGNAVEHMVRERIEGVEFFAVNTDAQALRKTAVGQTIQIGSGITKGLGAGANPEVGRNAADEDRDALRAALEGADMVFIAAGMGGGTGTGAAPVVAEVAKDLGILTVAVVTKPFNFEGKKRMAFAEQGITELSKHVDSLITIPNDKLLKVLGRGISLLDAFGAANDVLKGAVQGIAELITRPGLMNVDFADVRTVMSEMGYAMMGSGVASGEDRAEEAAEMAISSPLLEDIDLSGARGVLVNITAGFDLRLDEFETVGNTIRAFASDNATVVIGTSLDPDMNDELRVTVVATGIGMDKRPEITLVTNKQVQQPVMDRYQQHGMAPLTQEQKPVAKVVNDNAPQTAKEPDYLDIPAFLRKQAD
# GTP binding site of FtsZ, sequence (P0A9A6 whole entry): as the sequence (P0A9A6 whole entry, the tested form may be a part) above
compound,measurement,setting,value
"Oc1cc(O)c2c(c1)C/C(Cl)=C\Cc1cc(c(Cl)cc1O)Oc1c(O)cc(cc1O)C/C(Cl)=C\Cc1cc(c(Cl)cc1O)O2 [Compound 1, chrysophaentin 1]",Agar disk diffusion (μg/disk) S. aureus,[1]; [16],2 μg/disk
same,zone of inhibition at 2 µg/disc,"[1]; Staphylococcus aureus, ATCC25923, at 2 μg/disk",10 mm
same,zone of inhibition at 2 µg/disc,"[2]; Enterococcus faecium, at 2 μg/disk",10 mm
same,Agar disk diffusion (μg/disk) VREF,[2]; [16],2 μg/disk
same,selectivity for FtsZ over tubulin,tubulin,≥ 15 fold
same,effect on tubulin polymerization,tubulin; listed as chrysophaentin 1,no effect; also recorded: does not affect
same,effect on tubulin polymerization,tubulin; listed as compound 1,no effect
same,tubulin polymerization velocity v,"tubulin; chrysophaentin 1 at 150 μM, paclitaxel, nocodazole at standardized concentrations",49 min⁻¹
same,"concentration without cytotoxicity, BSC-1",[3],> 100 µg/mL
same,MIC50,"[4]; Enterococcus faecium, ATCC49032, microbroth dilution, read-out: MIC50 (μg/mL) E. faecium",3.8 ± 1.9 µg/mL
same,MIC50 (μg/mL) E. faecium,[4]; microbroth dilution,3.5 ± 1.8 µg/mL
same,MIC50,"[5]; Staphylococcus aureus, ATCC25923, microbroth dilution, read-out: MIC50 (μg/mL) S. aureus",1.8 ± 0.6 µg/mL
same,MIC50 (μg/mL) S. aureus,[5],1.8 ± 0.6 µg/mL
same,MIC50 (μg/mL) S. aureus,[5]; listed as chrysophaentin 1,1.8 ± 0.6 µg/mL
same,potency relative to chrysophaentin 6,[6],3-5 times
same,GTP-dependent FtsZ polymerization and protofilament formation (TEM),recombinant E. coli FtsZ [7],polymerization and protofilament formation were inhibited; also recorded: fully inhibited polymerization and protofilament formation
same,zone of inhibition at 2 µg/disc,"[8]; Enterococcus faecium, ATCC49032, at 2 μg/disk",10 mm
same,Agar disk diffusion (μg/disk) E. faecium,[8]; [16],2 μg/disk
same,MIC50,"[9]; Staphylococcus aureus, read-out: MIC50 (μg/mL) MRSA",1.5 ± 0.7 µg/mL
same,MIC50 (μg/mL) MRSA,[9],1.5 ± 0.7 µg/mL
same,MIC50 (μg/mL) MRSA,[9]; listed as Chrysophaentin 1,1.8 ± 0.6 µg/mL
same,MIC50 (μg/mL) MRSA,[9]; listed as chrysophaentin 1,1.5 ± 0.7 µg/mL
same,MIC50,[10],7.3 ± 3.7 µg/mL
same,"concentration without growth inhibition, HCT-116",[11],> 50 µg/mL
same,decrease in STD NMR signal intensity of compound on addition of GTPγS,"GTP binding site of FtsZ; 0.5 equivalents GTPγS (625 μM), 1.25 mM compound, 12.5 μM FtsZ",~50%
same,mode of binding relative to GTP/GTPγS,GTP binding site of FtsZ; listed as chrysophaentin 1,in a competitive manner; also recorded: bind competitively
same,mode of binding relative to GTP/GTPγS,GTP binding site of FtsZ; listed as compound 1,competitive inhibitor of GTP binding to FtsZ
same,"concentration without growth inhibition, P388",[12],> 50 µg/mL
same,MIC50,"[13]; Enterococcus faecium, read-out: MIC50 (μg/mL) VREF",2.9 ± 0.8 µg/mL
same,MIC50 (μg/mL) VREF,[13],2.8 ± 0.8 µg/mL
same,MIC50 (μg/mL) VREF,[13]; listed as Chrysophaentin 1,2.8 ± 0.8 µg/mL
same,IC50,"recombinant E. coli FtsZ [14]; IC50, inhibition of GTPase activity of FtsZ (molar), value in brackets",9.9 µM
same,IC50,"recombinant E. coli FtsZ [14]; IC50, inhibition of GTPase activity of FtsZ",9.88 µM
same,Agar disk diffusion (μg/disk) MRSA,[15]; [16],2 μg/disk
same,zone of inhibition at 2 µg/disc,"[15]; Staphylococcus aureus, at 2 μg/disk",10 mm
